Test results published in patent US20050197350A1, “Novel quinoline, tetrahydroquinazoline, and pyrimidine derivatives and methods of treatment related to the use thereof” (TAISHO PHARMACEUTICAL CO., LTD., priority 2003, published 2005).

Tested on: MCH receptors
Test: MCH receptor activity class (method not given)
Conditions: MCH receptor activity class 1-3 (percent of control at 10^-7 M or IC50)

Q: Which class does the source give for `CSc1ccc(NC(=O)NC[C@H]2CC[C@@H](Nc3nccc(N(C)C)n3)CC2)cc1` [compound 2411] here?
A: 3 (Class 3 The value of percent of control at 10^−7 M was more than 60% or the value of IC50 was more than 200 nM.)

Q: With `CN(C)c1cc(N[C@H]2CC[C@@H](NC(=S)Nc3ccc4c(c3)OCO4)CC2)nc2ccccc12` [compound 2305] as the molecule, how does the class read?
A: 3 (Class 3 The value of percent of control at 10^−7 M was more than 60% or the value of IC50 was more than 200 nM.)

Q: `Cc1c(Cl)cccc1NC(=S)N[C@H]1CC[C@@H](Nc2cc(N(C)C)c3ccccc3n2)CC1` [compound 2306] was tested. Which class did it give?
A: 3 (Class 3 The value of percent of control at 10^−7 M was more than 60% or the value of IC50 was more than 200 nM.)

Same assay, conditions: MCH receptor; class by percent of control at 10^-7 M or IC50

Q: How did the class turn out when `CN(C)c1nc(N[C@H]2CC[C@@H](NC(=O)NCCc3ccccc3)CC2)nc2c1CCCC2` [compound 1906] was run?
A: 3 (Class 3 The value of percent of control at 10^−7 M was more than 60% or the value of IC50 was more than 200 nM.)

Q: How did the class turn out when `CN(C)c1cc(N[C@H]2CC[C@@H](NC(=O)c3cc(F)c(Cl)cc3Cl)CC2)nc2ccccc12` [compound 39] was run?
A: 3 (Class 3 The value of percent of control at 10^−7 M was more than 60% or the value of IC50 was more than 200 nM.)

Q: Which class does the source give for `CN(C)c1cc(N[C@H]2CC[C@@H](CNC(=O)c3ccc(F)c(F)c3)CC2)nc2ccccc12` [compound 160, N-[(cis-4-{[4-(dimethylamino)quinolin-2-yl]amino}cyclohexyl)methyl]-3,4-difluorobenzamide] here?
A: 3 (Class 3 The value of percent of control at 10^−7 M was more than 60% or the value of IC50 was more than 200 nM.)

Same assay, conditions: activity class per percent of control at 10^-7 M or IC50

Q: Which class does the source give for `COc1cc(OC)c(CNC[C@H]2CC[C@@H](Nc3cc(N(C)C)c4ccccc4n3)CC2)cc1Br` [compound 1144] here?
A: 2 (Class 2: The value of percent of control at 10^−7 M was from 40% to 60% or the value of IC′50 was from 50 nM to 200 nM.)

Q: Which class does the source give for `CN(C)c1cc(N[C@H]2CC[C@@H](CNCc3c[nH]c4ccc(Br)cc34)CC2)nc2ccccc12` [compound 1130] here?
A: 2 (Class 2: The value of percent of control at 10^−7 M was from 40% to 60% or the value of IC′50 was from 50 nM to 200 nM.)

Same assay, conditions: class 1-3 by percent of control at 10^-7 M or IC50

Q: How did the class turn out when `CN(C)c1nc(N[C@H]2CC[C@@H](NC(=O)c3ccc(Cl)c([N+](=O)[O-])c3)CC2)nc2c1CCCC2` [compound 463] was run?
A: 1 (Class 1: The value of percent of control at 10^−7 M was less than 40% or the value of IC50 was less than 50 nM.)

Q: For `Cc1ccccc1C(=O)NC[C@H]1CC[C@@H](Nc2nccc(N(C)C)n2)CC1` [compound 441], which class is on record?
A: 3 (Class 3 The value of percent of control at 10^−7 M was more than 60% or the value of IC50 was more than 200 nM.)

Q: `CN(C)c1nc(N[C@H]2CC[C@@H](NC(=O)c3ccc(C#N)cc3)CC2)nc2c1CCCC2` [compound 513] was tested. Which class did it give?
A: 3 (Class 3 The value of percent of control at 10^−7 M was more than 60% or the value of IC50 was more than 200 nM.)

Q: `CN(C)c1nc(N[C@H]2CC[C@@H](NC(=O)c3cccc(F)c3)CC2)nc2c1CCCC2` [compound 541] was tested. Which class did it give?
A: 1 (Class 1: The value of percent of control at 10^−7 M was less than 40% or the value of IC50 was less than 50 nM.)

Q: With `CN(C)c1nc(N[C@H]2CC[C@@H](CNC(=O)/C=C/c3ccccc3)CC2)nc2c1CCCC2` [compound 588] as the molecule, how does the class read?
A: 3 (Class 3 The value of percent of control at 10^−7 M was more than 60% or the value of IC50 was more than 200 nM.)

Q: Which class does the source give for `CN(C)c1nc(N[C@H]2CC[C@@H](NC(=O)CSc3ccccc3)CC2)nc2c1CCCC2` [compound 499] here?
A: 3 (Class 3 The value of percent of control at 10^−7 M was more than 60% or the value of IC50 was more than 200 nM.)

Same assay, conditions: class by percent of control at 10^-7 M or IC50

Q: Which class does the source give for `COc1ccc(F)c(CNC[C@H]2CC[C@@H](Nc3nc4c(c(N(C)C)n3)CCCC4)CC2)c1` [compound 1406] here?
A: 3 (Class 3 The value of percent of control at 10^−7 M was more than 60% or the value of IC50 was more than 200 nM.)

Q: `COc1ccc(CN[C@H]2CC[C@@H](Nc3nc4c(c(N(C)C)n3)CCCC4)CC2)c(OC)c1OC` [compound 1336] was tested. Which class did it give?
A: 3 (Class 3 The value of percent of control at 10^−7 M was more than 60% or the value of IC50 was more than 200 nM.)

Q: With `CN(C)c1nc(N[C@H]2CC[C@@H](CNC(=O)c3cccc(F)c3F)CC2)nc2c1CCCC2` [compound 663] as the molecule, how does the class read?
A: 3 (Class 3 The value of percent of control at 10^−7 M was more than 60% or the value of IC50 was more than 200 nM.)

Q: For `CN(C)c1ccnc(N[C@H]2CC[C@@H](CNC(=O)c3cccc(I)c3)CC2)n1` [compound 403], which class is on record?
A: 3 (Class 3 The value of percent of control at 10^−7 M was more than 60% or the value of IC50 was more than 200 nM.)

Q: `CN(C)c1ccnc(N[C@H]2CC[C@@H](CNC(=O)c3ccc(I)cc3)CC2)n1` [compound 386] was tested. Which class did it give?
A: 3 (Class 3 The value of percent of control at 10^−7 M was more than 60% or the value of IC50 was more than 200 nM.)

Q: For `CN(C)c1cc(N[C@H]2CC[C@@H](CNCCc3ccc(C(C)(C)C)cc3)CC2)nc2ccccc12` [compound 1468], which class is on record?
A: 3 (Class 3 The value of percent of control at 10^−7 M was more than 60% or the value of IC50 was more than 200 nM.)

Q: How did the class turn out when `COC(=O)c1sccc1NC(=S)N[C@H]1CC[C@@H](Nc2nc3c(c(N(C)C)n2)CCCC3)CC1` [compound 1792] was run?
A: 3 (Class 3 The value of percent of control at 10^−7 M was more than 60% or the value of IC50 was more than 200 nM.)

Q: For `CN(C)c1nc(N[C@H]2CC[C@@H](CNCc3cccc(Cl)c3)CC2)nc2c1CCCC2` [compound 1390], which class is on record?
A: 3 (Class 3 The value of percent of control at 10^−7 M was more than 60% or the value of IC50 was more than 200 nM.)

Q: For `Cc1c(C(=O)N[C@H]2CC[C@@H](Nc3cc(N(C)C)c4ccccc4n3)CC2)cc(-c2ccccc2)n1-c1ccccc1` [compound 751], which class is on record?
A: 3 (Class 3 The value of percent of control at 10^−7 M was more than 60% or the value of IC50 was more than 200 nM.)

Q: With `CN(C)c1ccnc(N[C@H]2CC[C@@H](CNCc3cc(F)cc(C(F)(F)F)c3)CC2)n1` [compound 1319] as the molecule, how does the class read?
A: 3 (Class 3 The value of percent of control at 10^−7 M was more than 60% or the value of IC50 was more than 200 nM.)

Q: How did the class turn out when `CN(C)c1cc(N[C@H]2CC[C@@H](NC(=O)c3ccccc3C(=O)c3cccc4ccccc34)CC2)nc2ccccc12` [compound 749] was run?
A: 3 (Class 3 The value of percent of control at 10^−7 M was more than 60% or the value of IC50 was more than 200 nM.)

Q: For `CN(C)c1nc(N[C@H]2CC[C@@H](NC(=O)Nc3ccccc3[N+](=O)[O-])CC2)nc2c1CCCC2` [compound 1717], which class is on record?
A: 3 (Class 3 The value of percent of control at 10^−7 M was more than 60% or the value of IC50 was more than 200 nM.)

Q: `CC(C)c1cccc(C(C)C)c1NC(=O)NC[C@H]1CC[C@@H](Nc2nc3c(c(N(C)C)n2)CCCC3)CC1` [compound 2488, N-(2,6-diisopropylphenyl)-N′-[(cis-4-{[4-(dimethylamino)-5,6,7,8-tetrahydroquinazolin-2-yl]amino}cyclohexyl)methyl]urea] was tested. Which class did it give?
A: 2 (Class 2: The value of percent of control at 10^−7 M was from 40% to 60% or the value of IC′50 was from 50 nM to 200 nM.)

Q: `CN(C)c1nc(N[C@H]2CC[C@@H](NC(=O)Nc3cc(Cl)cc(Cl)c3)CC2)nc2c1CCCC2` [compound 1794] was tested. Which class did it give?
A: 3 (Class 3 The value of percent of control at 10^−7 M was more than 60% or the value of IC50 was more than 200 nM.)

Q: `Cc1ccc(NC(=O)N[C@H]2CC[C@@H](Nc3nc4c(c(N(C)C)n3)CCCC4)CC2)c([N+](=O)[O-])c1` [compound 1832] was tested. Which class did it give?
A: 3 (Class 3 The value of percent of control at 10^−7 M was more than 60% or the value of IC50 was more than 200 nM.)

Q: How did the class turn out when `CN(C)c1cc(N[C@H]2CC[C@@H](NC(=O)c3c4ccccc4cc4ccccc34)CC2)nc2ccccc12` [compound 753] was run?
A: 3 (Class 3 The value of percent of control at 10^−7 M was more than 60% or the value of IC50 was more than 200 nM.)

Q: For `Cc1cccc(C(C)C)c1NC(=S)N[C@H]1CC[C@@H](Nc2nc3c(c(N(C)C)n2)CCCC3)CC1` [compound 1783], which class is on record?
A: 3 (Class 3 The value of percent of control at 10^−7 M was more than 60% or the value of IC50 was more than 200 nM.)

Same assay, conditions: class by percent of control at 10^−7 M or IC50

Q: For `Cc1cc(N(C)C)nc(N[C@H]2CC[C@@H](NC(=O)c3ccc(Br)c(C)c3)CC2)n1` [compound 2969, 4-bromo-N-(cis-4-{[4-(dimethylamino)-6-methylpyrimidin-2-yl]amino}cyclohexyl)-3-methylbenzamide], which class is on record?
A: 1 (Class 1: The value of percent of control at 10^−7 M was less than 40% or the value of IC50 was less than 50 nM.)

Q: With `Cc1cccc(C(=O)N[C@H]2CC[C@@H](Nc3nc(C)c(C)c(N(C)C)n3)CC2)c1` [compound 2837, N-(cis-4-{[4-(dimethylamino)-5,6-dimethylpyrimidin-2-yl]amino}cyclohexyl)-3-methylbenzamide] as the molecule, how does the class read?
A: 1 (Class 1: The value of percent of control at 10^−7 M was less than 40% or the value of IC50 was less than 50 nM.)

Q: How did the class turn out when `Cc1cnc(N[C@H]2CC[C@@H](NC(=O)c3ccc(C(C)(C)C)cc3)CC2)nc1N(C)C` [compound 2905] was run?
A: 1 (Class 1: The value of percent of control at 10^−7 M was less than 40% or the value of IC50 was less than 50 nM.)

Q: With `Cc1cc(N(C)C)nc(N[C@H]2CC[C@@H](C(=O)NCc3cccc(C(F)(F)F)c3)CC2)n1` [compound 2813, cis-4-{[4-(dimethylamino)-6-methylpyrimidin-2-yl]amino}-N-[3-(trifluoromethyl)benzyl]cyclohexanecarboxamide] as the molecule, how does the class read?
A: 2 (Class 2: The value of percent of control at 10^−7 M was from 40% to 60% or the value of IC′50 was from 50 nM to 200 nM.)

Q: Which class does the source give for `Cc1cnc(N[C@H]2CC[C@@H](C(=O)N[C@@H](C)c3cccc4ccccc34)CC2)nc1N(C)C` (relative stereo) [compound 2783, cis-4-{[4-(dimethylamino)-5-methylpyrimidin-2-yl]ainino}-N-[(1S)-1-(1-naphthyl)ethyl]cyclohexanecarboxamide] here?
A: 1 (Class 1: The value of percent of control at 10^−7 M was less than 40% or the value of IC50 was less than 50 nM.)

Q: `Cc1cnc(N[C@H]2CC[C@@H](NC(=O)COc3cccc(C(F)(F)F)c3)CC2)nc1N(C)C` [compound 2878, N-(cis-4-{[4-(dimethylamino)-5-methylpyrimidin-2-yl]amino}cyclohexyl)-2-[3-(trifluoromethyl)phenoxy]acetamide] was tested. Which class did it give?
A: 1 (Class 1: The value of percent of control at 10^−7 M was less than 40% or the value of IC50 was less than 50 nM.)
